Read-outs that look alike come from different tables or passages of the source.
Target: T1, human NatA (Homo sapiens, UniProt P41227+Q9BXJ9)
T1 construct: Human NatA (hNatA) full-length (FL) was cloned; made in house; host or cells: Tnao38 insect cells (baculovirus, pFL vector)
T1 sequence (P41227 1-235): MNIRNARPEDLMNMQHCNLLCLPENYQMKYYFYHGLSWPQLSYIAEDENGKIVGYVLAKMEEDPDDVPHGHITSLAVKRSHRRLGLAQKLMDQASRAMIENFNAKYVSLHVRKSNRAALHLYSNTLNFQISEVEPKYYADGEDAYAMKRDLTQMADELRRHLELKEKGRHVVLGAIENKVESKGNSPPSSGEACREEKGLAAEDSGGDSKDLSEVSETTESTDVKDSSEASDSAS
T1 sequence (Q9BXJ9 1-866 partner): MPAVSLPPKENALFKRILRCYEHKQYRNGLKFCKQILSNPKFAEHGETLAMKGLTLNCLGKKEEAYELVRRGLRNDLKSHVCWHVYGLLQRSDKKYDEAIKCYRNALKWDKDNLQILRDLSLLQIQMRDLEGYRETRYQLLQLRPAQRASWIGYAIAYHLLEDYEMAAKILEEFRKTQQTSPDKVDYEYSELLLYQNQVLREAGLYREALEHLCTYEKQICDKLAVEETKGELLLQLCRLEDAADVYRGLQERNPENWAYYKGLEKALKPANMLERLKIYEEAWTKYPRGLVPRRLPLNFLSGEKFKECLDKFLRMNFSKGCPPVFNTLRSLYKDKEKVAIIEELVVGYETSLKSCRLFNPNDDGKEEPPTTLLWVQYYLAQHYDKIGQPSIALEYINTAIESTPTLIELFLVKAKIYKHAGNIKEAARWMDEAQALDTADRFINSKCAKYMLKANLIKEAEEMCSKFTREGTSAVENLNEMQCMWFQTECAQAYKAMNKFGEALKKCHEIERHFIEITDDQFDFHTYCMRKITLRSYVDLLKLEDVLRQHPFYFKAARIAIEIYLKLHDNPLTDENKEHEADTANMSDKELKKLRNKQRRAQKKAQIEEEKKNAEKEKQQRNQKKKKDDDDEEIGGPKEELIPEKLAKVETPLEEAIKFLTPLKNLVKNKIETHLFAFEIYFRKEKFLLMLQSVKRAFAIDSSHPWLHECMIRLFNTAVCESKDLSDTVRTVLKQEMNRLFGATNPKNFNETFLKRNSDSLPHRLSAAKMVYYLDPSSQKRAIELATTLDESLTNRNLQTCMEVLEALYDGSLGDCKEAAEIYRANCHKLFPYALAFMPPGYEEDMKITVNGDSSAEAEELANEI
Assay: In vitro Nt-acetylation assay (NatA, CPM fluorescence)
Type: biochemical
Procedure: Gly-starting proteins can be substrates of the Nt-acetyltransferase NatA[3],[21]. Having established direct DCAF10 binding to Ac-Gly N-termini, we next asked whether SFK N-termini are bona fide NatA substrates. We developed an in vitro Nt-acetylation assay comprising purified NatA, acetyl-CoA (Ac-CoA), and the peptide of interest (Fig. 3a, b)[33]. Acetyl-group transfer was assessed using CPM [7-(diethylamino)−3-(4′-maleimidophenyl)−4-methylcoumarin], which reacts specifically with free thiol groups to produce a highly fluorescent product (excitation: 390 nm; emission: 479 nm), allowing detection of CoA production after acetyl-group transfer to the peptide (Supplementary Fig. 4e). We optimized the conditions to determine Michaelis–Menten kinetics for NatA-mediated Nt-acetylation with a target peptide ([…]) previously used for NatA assays and co-crystallization (Supplementary Fig. 4f)[34]. […] Likely, this was due to a Km even higher than that of Src, and implying that the peptide concentrations in the assay might have been insufficient for the reaction to proceed with an appreciable rate. […] Negative controls (COX17 and Ac-Lyn) produced low signals. […] Given the direct association of NatA with SFK N-termini at the ribosomal exit tunnel, however, we surmise that Nt-acetylation of SFKs in cells may proceed despite these unfavorable kinetic parameters.
The assay was performed essentially as described previously. Briefly, peptide substrates (Supplementary Table 1) were incubated with purified human NatA and acetyl-CoA; acetylation was quantified by CPM fluorescence (CoA detection), and Michaelis–Menten parameters were derived from 8-point 1:1 dilution series within the linear range (n = 4 independent enzymatic assays). Full buffer compositions, reagent concentrations, plate format, instrument settings, controls, and fitting procedures are provided in the Supplementary Methods and Tables. […]
301 Cloning, expression, and purification of human NatA
302 Human NatA (hNatA) full-length (FL) was cloned in a pFL vector expressing both
303 genes, NAA15 with a 6× C-term histidine tag (NAA15-6xHIS) and NAA102. The
304 expression was carried out in insect cells (Tnao38) for 72 h infected 1:20 with
305 baculovirus. Washed cell pellets were lysed by sonication in a lysis buffer containing 200
306 mM NaCl, 50 mM HEPES pH 8.0, 20 mM Imidazole, and 2 mM TCEP. The protein
307 purification was performed as a three-step purification, starting with an affinity nickel
308 column, followed by an ion-exchange column with a gradient of 50–300 mM NaCl, and
309 finished with size exclusion chromatography (SEC) using an S200 10/300 column. The
310 main peaks were collected, and the protein was concentrated in the SEC buffer (150 mM
311 NaCl, 50 mM HEPES pH 8.0, 1 mM EDTA). The purified hNatA was flash-frozen in
312 liquid nitrogen and stored at -80°C.
314 In vitro Nt-acetylation assay
315 The method has been described in detail previously2. Briefly, different peptides
316 (Supplementary Table 1) and concentrations (an eight-step, 1:1 dilution series for
317 Michaelis-Menten curves) as indicated were incubated with 20 nM hNatA and 80 µM Ac-
318 CoA in reaction buffer (50 mM HEPES pH 8.0, 0.5 mM EDTA, 0.005% CHAPS) for 60
319 (Src) or 120 min (Lyn), at RT in a 384-well microplate (Corning 4514) (n = 4).
320 Afterwards, the enzymatic reaction was stopped by adding 1:1 DMSO with 10 µM (final
321 concentration 5 µM) of the thiol reactive CPM (7-Diethylamino-3-
322 (4'Maleimidylphenyl)4-Methylcoumarin). After 1 h at RT, the readout was performed
323 with a Tecan Spark® Multimode Microplate Reader (excitation 390 nm, emission 479
324 nm). Background values at 0 µM peptide were subtracted, and control reactions omitting
325 NatA or Ac-CoA were performed. Dilution series of CoA incubated with 5 µM CPM were
326 used to generate a linear equation (y = 10.99*x + 81.06) to calculate acetylation velocities
327 for NatA-mediated peptide acetylation. […]

[1] = 20 nM NatA, 80 µM Ac-CoA, pH 8.0, RT, 120 min, peptide up to 1 mM, CPM fluorescence, mean ± s.d., n = 4, read-out: Km
[2] = conclusion: poor NatA substrates, read-out: Km, summary statement
[3] = original assay, peptide up to 160 μM
[4] = rounded values in Peer Review File, read-out: Km, as given in rebuttal
[5] = starting peptide concentration 1 mM

GCIKSKGKDSKK [Nt-free Lyn, Nt-peptide of Lyn (aa 1–10 + KKK-biotin), Nt-free]
Km [1]: 411 ± 94 µM | Km [2]: > 100 µM | Nt-acetylation by NatA (in words) [3]: did not show Nt-acetylation under these conditions | Km [4]: 411 µM | Nt-acetylation by NatA (in words) [5]: detectable Nt-acetylation

GCVQCKDKEAKK [Nt-free Fyn, Nt-peptide of Fyn, Nt-free]
Km [1]: 235 ± 46 µM | Km [2]: > 100 µM | Nt-acetylation by NatA (in words) [3]: did not show Nt-acetylation under these conditions | Km [4]: 235 µM | Nt-acetylation by NatA (in words) [5]: detectable Nt-acetylation

GSNKSKPKDAKK [Ac-Src, Nt-peptide of Src, Nt-acetylated]
Nt-acetylation by NatA (in words) [3]: no detectable acetylation

GCIKSKGKDSKK [Ac-Lyn, Nt-peptide of Lyn (aa 1–10 + KKK-biotin), Nt-acetylated]
Nt-acetylation by NatA (in words) [5]: low signals
